Counter-ions that a name gives are not always drawn. Like-named read-outs stand apart in the source and are kept apart here.
Columns and labels:
[1] = molecular target: T1, FGF14:Nav1.6 C-tail complex (Homo sapiens, UniProt Q92915+Q9UQD0); test: Split-luciferase complementation assay (LCA) in Clone V double stable HEK293 cells; type: cell-based; conditions: for Split Luciferase Assay Z-score Set 1 / Split Luciferase Assay % Lum Set 1: biological replicate Set 1; for Split Luciferase Assay Z-score Set 1 / Split Luciferase Assay Z-score Set 2: normalized to on-plate 0.3% DMSO controls; for Split Luciferase Assay % Lum Set 1 / Split Luciferase Assay %Lum Set 2: normalized to on-plate 0.3% DMSO controls (n=16 per plate); for Split Luciferase Assay Z-score Set 2 / Split Luciferase Assay %Lum Set 2: biological replicate Set 2; for Split Luciferase Assay %Lum Avg: average of Set 1 and Set 2, normalized to 0.3% DMSO controls
T1 construct: polymerase chain reaction (PCR) amplification of the FGF14 open reading frame (nt 1–855); C-terminal fragment of Nav1.6 (amino acids 1763–1976) fused with CD4ΔC-tail (amino acids 1–395); expressed in transfected cells
T1 sequence (Q92915 1-252 isoform Q92915-2): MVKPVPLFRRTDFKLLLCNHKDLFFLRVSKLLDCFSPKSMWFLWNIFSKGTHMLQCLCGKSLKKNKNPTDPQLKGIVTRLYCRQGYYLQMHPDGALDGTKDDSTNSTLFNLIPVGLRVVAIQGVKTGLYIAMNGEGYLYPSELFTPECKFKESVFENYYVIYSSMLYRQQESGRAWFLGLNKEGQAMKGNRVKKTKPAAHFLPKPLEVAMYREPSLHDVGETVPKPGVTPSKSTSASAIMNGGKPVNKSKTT
T1 sequence (Q9UQD0 1763-1976 limits assumed): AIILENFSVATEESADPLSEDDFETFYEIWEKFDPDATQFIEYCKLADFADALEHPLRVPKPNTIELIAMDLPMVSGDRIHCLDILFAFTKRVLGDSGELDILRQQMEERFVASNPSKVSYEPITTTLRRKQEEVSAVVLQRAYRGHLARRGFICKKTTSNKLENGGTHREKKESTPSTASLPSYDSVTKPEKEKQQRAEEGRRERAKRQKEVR

[2] = molecular target: full-length P. pyralis luciferase (Photinus pyralis, UniProt P08659, K549A/L550V/N119G/N50D/S548I); type: cell-based; conditions: CC_NCI screening, normalized to on-plate 0.3% DMSO controls; for Luciferase Assay % Lum: full-length luciferase counter-screen luminescence; for Luciferase Assay Z-score: full-length luciferase counter-screen
Chain of full-length P. pyralis luciferase (P08659 whole entry N50D/N119G/S548I/K549A/L550V, looked up): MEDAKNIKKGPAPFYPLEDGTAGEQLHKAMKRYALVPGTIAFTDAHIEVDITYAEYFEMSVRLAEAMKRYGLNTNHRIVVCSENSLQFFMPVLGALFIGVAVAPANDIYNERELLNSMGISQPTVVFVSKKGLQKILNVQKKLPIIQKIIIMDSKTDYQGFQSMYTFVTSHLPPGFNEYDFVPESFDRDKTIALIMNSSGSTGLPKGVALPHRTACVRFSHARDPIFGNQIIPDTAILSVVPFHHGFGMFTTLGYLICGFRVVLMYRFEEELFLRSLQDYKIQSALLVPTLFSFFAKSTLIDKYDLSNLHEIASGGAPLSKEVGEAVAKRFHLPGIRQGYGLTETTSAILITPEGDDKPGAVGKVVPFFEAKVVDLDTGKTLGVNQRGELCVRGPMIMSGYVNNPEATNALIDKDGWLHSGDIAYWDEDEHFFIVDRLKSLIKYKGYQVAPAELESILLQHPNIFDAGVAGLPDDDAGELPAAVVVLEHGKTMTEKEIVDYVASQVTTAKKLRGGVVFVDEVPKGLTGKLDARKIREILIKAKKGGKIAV

[3] = tested on: Clone V cells; conditions: for Toxicity Assay Z-score: human
[4] = tested on: Clone V cells; test: CellTiter Blue (CTB) cell viability counter-screen; conditions: for Toxicity Assay Z-score: CTB cell viability
[5] = CC_NCI screening, normalized to on-plate 0.3% DMSO controls
[6] = CC_NCI screening, LCA luminescence
[7] = CC_NCI screening, CTB cell viability fluorescence, normalized to on-plate 0.3% DMSO controls

Row | SMILES | Split Luciferase Assay % Lum Set 1 [1, 6] [%] | Split Luciferase Assay %Lum Set 2 [1, 6] [%] | Split Luciferase Assay Z-score Set 1 ([1]; CC_NCI screening, LCA) | Split Luciferase Assay Z-score Set 2 ([1]; CC_NCI screening, LCA) | Split Luciferase Assay %Lum Avg ([1]; CC_NCI screening) [%] | Luciferase Assay % Lum [2] [%] | Luciferase Assay Z-score [2] | Toxicity Assay Z-score ([3]; 16 h, 30 µM) | Toxicity Assay % Fluor [4, 7] [%] | also measured
1 | CC(=O)OCCN1C(=O)c2c(C)nc3ccc(S(=O)(=O)N4CCOCC4)cc3c2C1=O [IVACHTIN] | – | – | – | – | – | – | – | – | – | Split Luciferase Assay Z-score Set 1 ([1]; CC_NCI screening): 0.99; Split Luciferase Assay % Lum Set 1 ([1]; CC_NCI screening): 112.30%; Split Luciferase Assay Z-score Set 2 ([1]; CC_NCI screening): -3.23; Split Luciferase Assay %Lum Set 2 ([1]; CC_NCI screening): 60.34%; Split Luciferase Assay %Lum Avg [1]: 86.32%; Luciferase Assay % Lum (full-length luciferase counter-screen) [2]: 102.63%; Luciferase Assay Z-score (full-length luciferase counter-screen) [2]: 0.34; Toxicity Assay % Fluor (CTB cell viability fluorescence) [3]: 108.95%; Toxicity Assay Z-score (CTB cell viability) [4, 5]: 1.25
2 | Oc1ccc(-c2nc(-c3ccncc3)c(-c3ccc(F)cc3)[nH]2)cc1 [SB 202190] | 101.43 | 105.07 | 0.12 | 0.41 | 103.25 | 79.13 | -2.67 | -0.55 | 96.10 | –
3 | CCC1=C[C@@H]2CN(C1)Cc1c([nH]c3ccccc13)[C@@](C(=O)OC)(c1cc3c(cc1OC)N(C)[C@H]1[C@@](O)(C(=O)OC)[C@H](OC(C)=O)[C@]4(CC)C=CCN5CC[C@]31[C@@H]54)C2 [Vinorelbine tartrate] | 231.88 | 185.18 | 10.66 | 6.93 | 208.53 | 110.51 | 1.35 | -1.62 | 88.42 | –
4 | CC1=C(/C=C/C(C)=C/C=C/C(C)=C/C(=O)O)C(C)(C)CCC1 [Tretinoin] | 117.73 | 106.11 | 1.43 | 0.50 | 111.92 | 80.43 | -2.51 | -1.78 | 87.25 | –
5 | Cc1ccc(C(=O)Nc2ccc(CN3CCN(C)CC3)c(C(F)(F)F)c2)cc1C#Cc1cnc2cccnn12 [Ponatinib] | 53.59 | 58.26 | -3.75 | -3.40 | 55.93 | 84.93 | -1.93 | – | 80.95 | Toxicity Assay Z-score [3]: -2.66
6 | C=CC[C@@H]1/C=C(\C)C[C@H](C)C[C@H](OC)[C@H]2O[C@@](O)(C(=O)C(=O)N3CCCC[C@H]3C(=O)O[C@H](/C(C)=C/[C@@H]3CC[C@@H](O)[C@H](OC)C3)[C@H](C)[C@@H](O)CC1=O)[C@H](C)C[C@@H]2OC [FK-506] | 80.77 | 91.55 | -1.55 | -0.69 | 86.16 | 77.49 | -2.88 | 1.82 | 113.03 | –
7 | C#Cc1cccc(Nc2ncnc3cc(OCCOC)c(OCCOC)cc23)c1 [Erlotinib hydrochloride] | 118.82 | 73.86 | 1.52 | -2.13 | 96.34 | 82.34 | -2.26 | -0.92 | 93.40 | –
8 | CNC(=O)c1ccccc1Sc1ccc2c(/C=C/c3ccccn3)n[nH]c2c1 [AXITINIB] | 107.95 | 91.55 | 0.64 | -0.69 | 99.75 | 40.56 | -7.61 | -1.18 | 91.58 | –
9 | CC[C@@H]1C(=O)N(C)c2cnc(Nc3ccc(C(=O)NC4CCN(C)CC4)cc3OC)nc2N1C1CCCC1 [BI 2536, reference compound] | – | – | – | – | – | – | – | -0.11 | – | Toxicity Assay % Fluor [4]: 99.22%
10 | CN(C)CC[C@H](CSc1ccccc1)Nc1ccc(S(=O)(=O)NC(=O)c2ccc(N3CCN(Cc4ccccc4-c4ccc(Cl)cc4)CC3)cc2)cc1[N+](=O)[O-] [ABT-737] | 132.95 | 126.92 | 2.66 | 2.19 | 129.94 | 95.47 | -0.58 | 1.03 | 107.35 | –
11 | CNCc1ccc(-c2[nH]c3cc(F)cc4c3c2CCNC4=O)cc1 [AG014699] | 65.55 | 67.62 | -2.78 | -2.63 | 66.59 | 82.53 | -2.24 | -0.48 | 96.59 | –
12 | COC1=CC(c2cc3ccccc3[nH]2)=N/C1=C\c1[nH]c(C)cc1C [OBATOCLAX] | 59.03 | 61.38 | -3.31 | -3.14 | 60.20 | 78.33 | -2.78 | -1.76 | 87.39 | –
13 | CC[C@@]1(O)C(=O)OCc2c1cc1n(c2=O)Cc2cc3c(CN(C)C)c(O)ccc3nc2-1 [Topotecan hydrochloride] | 57.94 | 58.26 | -3.40 | -3.40 | 58.10 | 88.71 | -1.45 | -0.96 | 93.13 | –
14 | Clc1ccc(Nc2nnc(Cc3ccncc3)c3ccccc23)cc1 [VATALANIB] | 64.47 | 69.70 | -2.87 | -2.47 | 67.08 | 78.45 | -2.76 | -1.79 | 87.19 | –
15 | O=C(/C=C/c1cccc(S(=O)(=O)Nc2ccccc2)c1)NO [PXD101] | 105.78 | 106.11 | 0.47 | 0.50 | 105.94 | 87.87 | -1.55 | -0.54 | 96.16 | –
16 | CO[C@H]1C[C@@H]2CC[C@@H](C)[C@@](O)(O2)C(=O)C(=O)N2CCCC[C@H]2C(=O)O[C@H]([C@H](C)C[C@@H]2CC[C@@H](OCCO)[C@H](OC)C2)CC(=O)[C@H](C)/C=C(\C)[C@@H](O)[C@@H](OC)C(=O)[C@H](C)C[C@H](C)/C=C/C=C/C=C/1C [Everolimus] | 76.42 | 84.27 | -1.91 | -1.28 | 80.34 | 72.79 | -3.48 | – | 91.22 | Toxicity Assay Z-score [4, 5]: -1.23
17 | O=C(NOCC1CC1)c1ccc(F)c(F)c1Nc1ccc(I)cc1Cl [CI 1040, reference compound] | 50.33 | 42.65 | -4.01 | -4.67 | 46.49 | 103.28 | 0.42 | – | 85.93 | Z-score (LCA primary screening) ([1]; 30 µM, 384-well, average of primary screening (n = 2), vs on-plate 0.3% DMSO): −4.34; IMin (% Luminescence) ([1]; antagonists, Clone V cells, 384-well, normalized to DMSO): 46.49 % Luminescence; IC50 ([1]; estimated, 8-point dose response 0.25-30 µM, n = 4 per concentration, library compounds, read-out: IC50): 14.8 µM; Toxicity Assay Z-score [4, 5]: -1.97

Reference: paper PMC6858373 (Scientific Reports, 2019)
